The structures appear in SMILES notation.

One series deals with rRNA. Kind of series: Fluorescence of dye with rRNA. It is filed as binding.
Series [1] relates to 40mer dsDNA. Kind of series: Fluorescence enhancement of dye with 40mer dsDNA. It counts as binding. The note with it: for Relative Fluorescent Intensity: 40-mer ds-DNA, TO = 1.0; for Ratio ds/ss: fluorescence 40-mer ds-DNA vs ss-DNA. The method, then:
(§1) Stock solutions (8 mM) of each dye were prepared by dissolving each compound in dimethylsulfoxide (DMSO). Stock dye solutions were diluted to a desired concentration in tris-EDTA (TE) buffer (10 mM Tris, 1 mM EDTA, pH 8.0) immediately prior to use.
(§2) Stock solutions of λDNA and 40mer synthetic oligonucleotides (dsDNA and ssDNA), each at a concentration of 40 μM, were prepared in TE buffer. All DNA concentrations described are in base pairs of nucleotides. The DNA stock solutions were diluted to a desired concentration in TE buffer before being mixed with diluted dye solutions.
(§3) Fluorescence enhancement measurements of each dye were obtained by incubating dyes with λDNA, 40mer dsDNA, or 40mer ssDNA at a final concentration of 0.8 μM dye and 3.2 μM DNA for one minute. Fluorescence scans of the samples were performed with excitation wavelengths corresponding to the absorption maxima of the dyes. The resulting fluorescence intensities were compared to fluorescence intensities of Thiazole Orange (TO) and a compound equivalent to SYBR Green without the side chain (V02-06101), shown below,
(§4) [drawing 15] binding to λDNA, 40mer dsDNA, or 40mer ssDNA at a final concentration of 0.8 μM TO and 3.2 μM DNA for one minute, the same as for the tested dyes. The discrimination ratio between dsDNA and ssDNA was calculated by comparing the fluorescence intensities.

The nature of series [2]: Absorption spectra of dye alone. It is filed as physicochemical. The note with it: for ε: in M-1·cm-1 (unit assumed). The method, then:
as §1
[…] […] Optical densities were determined at the absorbance maxima and the extinction coefficients were calculated using Beer's law.

A further series deals with λDNA. Kind of series: Fluorescence enhancement of dye with λDNA. It is filed as binding. To be noted: for Ratio λ DNA/ss: fluorescence λ DNA vs ss-DNA; for Relative Fluorescent Intensity: λ DNA, TO = 1.0; for Fluorescence relative to TO / Fluorescence λ DNA/ssDNA: 0.8 μM dye, 3.2 μM DNA, one minute. Here is the method:
as §1, §2, §3, §4

Another series relates to RNA. Kind of series: Low range RNA quantification by fluorescence. It counts as binding. To be noted: low range RNA assay. The method, then: Detecting and quantifying small amounts of RNA is important in many determinations such as quantitating in vitro transcription yields and quantitating RNA concentration before performing RNA containing assays. RNA is typically quantitated by determining absorbance at 260 nm (λ260), but disadvantages include protein interference, DNA absorbance, and the need for high concentration of RNA (>4 μg/ml). More sensitive fluorescence methods must be used to quantitate small amounts of RNA. A widely used RNA quantitation dye is RiboGreen® (Invitrogen), where 1 ng/ml of RNA can be detected and quantitated with a standard fluorometer, fluorescence microplate reader, or filter fluorometer.
In one embodiment, the V11-03001 compound may be used to quantitate RNA.

Series [3] has as its system 40mer dsDNA. The experiment in a line: Fluorescence enhancement of dye with 40mer dsDNA. It is filed as binding.
Series [4] has as its system 110 bp and 925 bp fragments from human β-actin gene, 309 bp fragment from human Survivin gene, 413 bp fragment from human integrin α5 gene. The experiment in a line: qRT-PCR detection of longer PCR amplicons. It counts as biochemical. To be noted: 20 ng to 60 ng dye; 110, 309, 413, 925 bp amplicons. The method, then:
Compound V02-07027 was also used to detect the formation of longer PCR amplicons using qRT-PCR: The following by fragments were used: 110 bp and 925 bp fragments from human β-actin gene, a 309 bp fragment from human Survivin gene, and a 413 bp fragment from human integrin α5 gene. Real time PCR was performed on a Stratagene® MX3000 (Stratagene, La Jolla Calif.) instrument using an excitation wavelength of 492 nm and an emission wavelength of 516 nm. Each amplification reaction (25 μl) contained 10 ng or 100 ng of human Genomic DNA, 200 μM of each dNTP, 1.5 mM MgCl2, 50 mM KCL, 10 mM Tris-HCl, 400 nM of each of forward and reverse primers, and 2.5 units of Taq DNA polymerase (Thermo Fisher Scientific (Milwaukee Wis.)). Varying amounts of V02-07027 or a dye such as SYBR® Green (Invitrogen) were added to the reaction mix. Reactions were performed in triplicate and the data points represented the average signal.
(Real-time PCR tracks product formation cycle by cycle.)

As to `CCN(CC)c1ccc2c(/C=C3\Sc4ccccc4N3C)cc(N3CC[N+](C)(CCO)CC3)[o+]c2c1` [Dye V11-03001], in the series with rRNA, the “fluorescence enhancement when bound with RNA” value is recorded as “significant fluorescence enhancement”. Moreover, the “Ratio rRNA/ds” value in the series with rRNA (fluorescence rRNA vs 40-mer ds-DNA) amounted to 0.6. Moreover, the “Ratio rRNA/ss” value in the series with rRNA (fluorescence rRNA vs 40-mer ss-DNA) is 1.0. In addition, in the series with 40mer dsDNA [1], the “Relative Fluorescent Intensity” value is listed as 11.1 and the Ratio ds/ss is on record as 1.7. Further, in series [2] (Ethanol), the λex came out at 490 nm and the ε is given as 95,000. In addition, in series [2] (TE Buffer, 8 μM dye), the λex is on record as 487 nm and the ε was 65,269. Further, the “fluorescence enhancement among all the dyes studied” value in the series with λDNA (comparable to SYBR Green dye) was “strongest fluorescence enhancement”. In addition, in the series on λDNA, the “Ratio λ DNA/ss” value came to 1.8 and the “Relative Fluorescent Intensity” value worked out at 8.7. Moreover, in the series with RNA, the “fluorescence intensities versus RiboGreen” value is on record as “comparable to those using RiboGreen®”. Besides, the “relationship between fluorescence intensity and total RNA concentration” value in the series with RNA (FIG. 10) is on record as “linear relationship”.
For the compound `CCN(CC)c1ccc2c(/C=C3\Oc4ccccc4N3CC)cc(-c3ccccc3)[o+]c2c1` [Dye V02-06188], in the series on 40mer dsDNA [1], the “Relative Fluorescent Intensity” value stood at 0.6 and the Ratio ds/ss was found to be 1.5. Moreover, in series [2] (Ethanol), the λex was 520 nm and the ε is 58,000. For the same compound, in series [2] (TE Buffer, 8 μM dye), the λex came out at 499 nm and the ε is on record as 20,444. Besides, in the series on λDNA, the “Fluorescence relative to TO” value turned out to be 0.6, the “Fluorescence λ DNA/ssDNA” value was determined as 1.5, the “Ratio λ DNA/ss” value was determined as 2 and the “Relative Fluorescent Intensity” value came to 0.6. In addition, the “binding preference dsDNA over ssRNA” value in the series with 40mer dsDNA [3] is given as “slight preference for binding to dsDNA over binding to ssRNA”.
For `CCN(CC)c1ccc2c(/C=C3\Sc4ccccc4N3C)cc(N(C)CCCN(C)C)[o+]c2c1` [Dye V02-07027], in series [4], the “binding to amplified DNA fragments” value is “bound to amplified DNA fragments, generating a fluorescent signal”. In addition, in the series on 40mer dsDNA [1], the “Relative Fluorescent Intensity” value turned out to be 5.3 and the Ratio ds/ss worked out at 2.6. In series [2] (Ethanol), the λex was found to be 477 nm and the ε is 60,000. In addition, in series [2] (TE Buffer, 8 μM dye), the λex came to 475 nm and the ε is given as 39,987. For the same compound, in the series on λDNA, the “Fluorescence relative to TO” value worked out at 3.6, the “Fluorescence λ DNA/ssDNA” value is 2.8, the “Ratio λ DNA/ss” value came out at 2.8 and the “Relative Fluorescent Intensity” value was determined as 3.6.

The values are drawn from patent publication US8378115B2, “Monomethine dyes” (Thermo Fisher Scientific (Milwaukee) LLC, priority 2007, dated 2013).
